“Also recorded” adds a separate entry of the source.

The subject of one data set is T1, C99.
T1 construct: the transmembrane 99 residue C-terminal (C99) domain; made in house; host or cells: E. coli BL21DE3, pET21b
The data set can be described thus: Glutaraldehyde cross-linking of verteporfin–C99 mixtures. On the set-up: species or system human. The conditions noted are these: LMPG micelles, versus DMSO control, n=3. On the procedure:
C-terminally His-tagged C99 was expressed from E. coli as mentioned above, and the sample was eluted into a buffer containing 0.1% w/v LMPG, 350 mM Imidazole, 100 mM NaCl, pH 7.8. The protein sample was buffer swapped into GA X-linking buffer containing 0.25% w/v LMPG, 250 mM imidazole, 100 mM NaCl, pH 7.8, and the protein was concentrated to a stock of 300 μM C99. Protein stocks were either used right away or flash frozen in LN2 and stored at −80 °C until further use.
On the day of the experiment, fresh glutaraldehyde (from 25% w/v ampoule) was used to prepare serial dilutions and stored on ice. Reaction volumes were set at 50 μl, containing 30 μM C99, 25 mM Imidazole, 100 mM NaCl, pH 7.8, and 2.5% w/v LMPG. For a typical GA reaction setup, the following components were added to Eppendorf tubes in this specific order: 5 μl of 300 μM C99 was added to the bottom of the tube, followed by 6 μl of 20% w/w LMPG solution, then the sample was diluted to 50 μl using 39 μl of GA X-linking buffer. The sample was mixed by vortex and allowed to sit for at least 30 min. After incubation, 1 μl of Verteporfin stock (typically 10 mM in DMSO) was added to the mixture, vortexed, and allowed to incubate for at least another 30 min in the dark. […] Then, SDS loading buffer was added directly to the reaction tubes, and the samples were visualized using SDS-PAGE and analyzed by densitometry using ImageJ. […]

Data set [1] is described as follows: Verteporfin aggregation and LMPG micelle size (DLS, 1D 1H NMR). Type of data set: physicochemical. The method, then:
Samples were made according to NMR sample conditions. Solutions were first filtered with a 0.2 μm syringe filter then centrifuged at […] to remove insoluble debris. The solution was then added to the inner chamber of the disposable DLS cuvette. The disposable DLS cuvette was capped and loaded in the DLS instrument. Experiments were carried out at 25 °C. The DLS software (Dynamics 7.5 software; Wyatt Technologies) calculates an apparent hydrodynamic radius (Rh) via the Stokes–Einstein equation (Equation 6):(6) Rh=kT/6πηDt where k is Boltzmann’s constant, T is the absolute temperature, η is sample viscosity, and Dt is the diffusion coefficient. The apparent molecular weight of the detergent or verteporfin particles was calculated in the Dynamics software, as based on the measured apparent radius of hydration, using the assumption that the density of the particle was similar to that of a globular protein.

Data set [2] concerns T2, Notch-1 TM/JM (residues 1721–1771).
T2 construct: flanked by its juxtamembrane segments (residues 1721–1771, “Notch-1 TM/JM”); made in house; host or cells: E. coli BL21DE3 Star, pET21b
The data set can be described thus: TROSY NMR titration of Notch-1 TM/JM by verteporfin. Type of data set: binding. The method, then:
(§1) A Bruker Avance III 600 MHz NMR spectrometer equipped with a cryoprobe (CPTCI) and automated sample changer (SampleJet) was used to collect NMR spectra. Sample details are described above. For high-throughput screening data collection, the ^15N-^1H BEST-TROSY (b_trosy3gpph.2) experiment with 64 scans for each of 96 increments and a relaxation delay of 200 ms was run at 318 K for a total data acquisition time of 35 min per sample. To achieve enhanced signal-to-noise ratio, follow-up titrations and control experiments were conducted using the BEST-TROSY pulse program with 200 scans per 96 increments at 318 K, for a total data acquisition time of 110 min per sample. Data were processed using Bruker Topspin 3.6 using a Gaussian window function with a line broadening of -10 and a Gaussian max of 0.1 in both dimensions. NMR data were then further processed and analyzed using NMR-FAM SPARKY, plotted using GraphPad Prism 9, and prepared for publication figures using Affinity Designer.
2D ^15 N-^1H HSQC NMR data used to calculate dissociations constant (KD) values by first normalizing 2D data using the established formula ([78]) (Equation 1):(1) δ(1H,15N)=√(1/2[δ2H+.14∗δ2N]) Where δ(1H,15N) is the square root of linear chemical shifts in each respective dimension, δH and δN with the Nitrogen normalization factor of 0.14.

Another data set deals with T3, C99 T761A.
T3 construct: the transmembrane 99 residue C-terminal (C99) domain; hexa-His; made in house
The data set can be described thus: TROSY NMR titration of C99 T761A mutant by verteporfin. The conditions noted are these: LMPG micelles, up to 300 µM verteporfin, n=1. Type of data set: binding, human. The method, then:
as §1

Turning to verteporfin, the “change in C99 oligomeric state (cross-linking)” value in the data set with C99 is reported as “no change in oligomeric state; also recorded: no increase in higher-order C99 species”. Further, in data set [1] (0 to 200 μM verteporfin, 2.5% LMPG, n = 3), the “effect on LMPG micelle particle size (DLS)” value is listed as “only modest effects on micelle particle size; also recorded: insensitive”. The “state of verteporfin in micelle-free aqueous solution (1H NMR line width)” value in data set [1] (100 μM verteporfin, LMPG below CMC, pH 6.5) is on record as “aggregate formation”. Moreover, the “LMPG concentration at which soluble verteporfin aggregates are fully dispersed (DLS)” value in data set [1] (100 μM verteporfin, n = 3) came to 50 mM. Moreover, the “binding to Notch-1 TM/JM” value was “only minor spectral changes at very high concentrations; also recorded: does not bind” in data set [2] (D6PC/DMPC bicelles); “little change in the spectrum of Notch-1 until a concentration of 300 μM; also recorded: does not bind” in data set [2] (DDMB micelles); “does not bind; also recorded: only minor perturbations of Notch resonances” in data set [2] (LMPG micelles, same conditions as C99 titration). Also, the “binding to Notch-1 transmembrane domain” value in data set [2] (general statement) was “did not bind; also recorded: not to bind”. In addition, the “binding to C99 T761A” value in the data set with C99 T761A is listed as “complete lack of binding; also recorded: binding was disrupted”.

The values are drawn from paper PMC8968665, “Verteporfin is a substrate-selective γ-secretase inhibitor that binds the amyloid precursor protein transmembrane domain” (The Journal of Biological Chemistry, 2022).
